pIC50: −log10 of the molar value. Bounds are passed on as bounds.

The experiment addresses T1, G1 APOL1 (Homo sapiens, UniProt O14791, I384M/S342G).
T1 construct: expressed in transfected cells
T1 sequence (O14791 28-398 S342G/I384M): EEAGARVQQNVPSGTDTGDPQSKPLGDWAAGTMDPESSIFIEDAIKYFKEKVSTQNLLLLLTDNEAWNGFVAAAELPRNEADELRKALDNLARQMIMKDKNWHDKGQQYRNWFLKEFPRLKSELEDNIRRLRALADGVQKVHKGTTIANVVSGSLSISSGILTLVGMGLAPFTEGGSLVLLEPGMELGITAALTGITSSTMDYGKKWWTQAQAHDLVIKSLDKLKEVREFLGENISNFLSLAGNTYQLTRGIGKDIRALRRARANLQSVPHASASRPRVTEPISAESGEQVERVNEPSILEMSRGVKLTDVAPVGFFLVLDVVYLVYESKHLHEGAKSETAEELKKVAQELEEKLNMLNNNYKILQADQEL
In words: Acute APOL1 Thallium Assay with Inducible Stable Clones of HEK 293 Cells. In kind it is cell-based. The conditions noted are these: HEK 293 inducible stable clones, G1 APOL1; read-out: Thallium Assay (IC50). In a few lines:
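HEK293 T-Rex cells with a stable tetracycline-inducible G1 APOL1 construct (clone DC3.25) were induced with tetracycline at plating, 26000 cells per well, then incubated at 37° C. They were loaded with an AM-ester thallium-sensitive dye and stimulated with Tl+. The fluorescence rise measured Tl+ influx through APOL1 pores.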
The pIC50 is −log10 of the IC50, conventionally taken in molar units. For `CC(C)(C)OC(=O)NC1(CC(=O)NCCc2c(-c3ccc(F)cc3)[nH]c3c(F)cc(F)cc23)CC1` [Compound 312], the negative logarithm of the IC50 (pIC50) was under 6.00.

For `C[C@H](NC(=O)OC(C)(C)C)C(=O)NCCc1c(-c2ccc(F)cc2)[nH]c2c(F)cc(F)cc12` [Compound 313], the pIC50 was under 6.00.

Turning to `O=C(NCCc1c(-c2ccc(F)cc2)[nH]c2c(F)cc(F)cc12)C1CC(O)(C(F)(F)F)C1` (centres unmarked) [Compound 314], the pIC50 is under 6.00.

Regarding `O=C(NCCc1c(-c2ccc(F)cc2)[nH]c2c(F)cc(F)cc12)c1cc(C(F)(F)F)n[nH]1` [Compound 315], the pIC50 was under 6.00.

As to `O=C(NCCc1c(-c2ccc(F)cc2)[nH]c2c(F)cc(F)cc12)c1c[nH]nc1C(F)(F)F` [Compound 316], the pIC50 is under 6.00.

As to `CC(C)(C)OC(=O)NCC(=O)NCCc1c(-c2ccc(F)cc2)[nH]c2c(F)cc(F)cc12` [Compound 317], the negative-log IC50 (pIC50) is under 6.00.

With `O=C(CC1CC(=O)NC(=O)C1)NCCc1c(-c2ccc(F)cc2)[nH]c2c(F)cc(F)cc12` [Compound 318], the pIC50 was under 6.00.

Regarding `CC1(C(=O)NCCc2c(-c3ccc(F)cc3)[nH]c3c(F)cc(F)cc23)CCC(=O)NC1` (centres unmarked) [Compound 319], the pIC50 was under 6.00.

Regarding `O=C1CC(C(=O)NCCc2c(-c3ccc(F)cc3)[nH]c3c(F)cc(F)cc23)CC(=O)N1` [Compound 320], the pIC50 was under 6.00.

In the case of `CS(=O)(=O)NCC(=O)NCCc1c(-c2ccc(F)cc2)[nH]c2c(F)cc(F)cc12` [Compound 321], the negative logarithm of the IC50 (pIC50) was under 6.00.

For the compound `O=C1N[C@H](C(=O)NCCc2c(-c3ccc(F)cc3)[nH]c3c(F)cc(F)cc23)CS1` [Compound 322], the negative-log IC50 (pIC50) is under 6.00.

Consider `O=C1N[C@H](C(=O)NCCc2c(-c3ccc(F)cc3)[nH]c3c(F)cc(F)cc23)CCO1` [Compound 323], for which the negative logarithm of the IC50 (pIC50) is under 6.00.

On to `O=C(NCCc1c(-c2ccc(F)cc2)[nH]c2c(F)cc(F)cc12)[C@H]1CC[C@@H](O)CC1` [Compound 324], for which the pIC50 was under 6.00.

As to `O=C(NCCc1c(-c2ccc(F)cc2)[nH]c2c(F)cc(F)cc12)[C@H]1CC[C@H](O)CC1` [Compound 325], the pIC50 is under 6.00.

Regarding `O=C(NCCc1c(-c2ccc(F)cc2)[nH]c2c(F)cc(F)cc12)C1CCCCC1O` (centres unmarked) [Compound 326], the negative logarithm of the IC50 (pIC50) was 6.00 to 6.60.

`O=C(NCCc1c(-c2ccc(F)cc2)[nH]c2c(F)cc(F)cc12)C(O)C(F)(F)F` (centres unmarked) [Compound 327]: the negative-log IC50 (pIC50) is 6.00 to 6.60.

Consider `Nc1ncc(C(=O)NCCc2c(-c3ccc(F)cc3)[nH]c3c(F)cc(F)cc23)s1` [Compound 328], for which the negative logarithm of the IC50 (pIC50) was under 6.00.

Take `O=C1CCC[C@@H](C(=O)NCCc2c(-c3ccc(F)cc3)[nH]c3c(F)cc(F)cc23)N1` [Compound 329]: the pIC50 is under 6.00.

Take `O=C1NCCCC1C(=O)NCCc1c(-c2ccc(F)cc2)[nH]c2c(F)cc(F)cc12` (centres unmarked) [Compound 330]: the negative-log IC50 (pIC50) was under 6.00.

Consider `O=C1CC(C(=O)NCCc2c(-c3ccc(F)cc3)[nH]c3c(F)cc(F)cc23)CCN1` (centres unmarked) [Compound 331], for which the negative-log IC50 (pIC50) was under 6.00.

`O=C1CCC(C(=O)NCCc2c(-c3ccc(F)cc3)[nH]c3c(F)cc(F)cc23)CN1` (centres unmarked) [Compound 332]: the pIC50 was under 6.00.

As to `O=C1CC(C(=O)NCCc2c(-c3ccc(F)cc3)[nH]c3c(F)cc(F)cc23)C(=O)N1` (centres unmarked) [Compound 333], the pIC50 was over 6.60.

As for `O=C(NCCc1c(-c2ccc(F)cc2)[nH]c2c(F)cc(F)cc12)c1ccc(O)nc1` [Compound 334], the pIC50 is under 6.00.

With `O=C1N[C@H](C(=O)NCCc2c(-c3ccc(F)cc3)[nH]c3c(F)cc(F)cc23)CO1` [Compound 336], the negative logarithm of the IC50 (pIC50) was under 6.00.

As to `O=C1NCC(C(=O)NCCc2c(-c3ccc(F)cc3)[nH]c3c(F)cc(F)cc23)O1` (centres unmarked) [Compound 337], the pIC50 was under 6.00.

For the compound `O=C1CC[C@@H](C(=O)NCCc2c(-c3ccc(F)cc3)[nH]c3c(F)cc(F)cc23)N1` [Compound 338], the pIC50 was under 6.00.

Take `NC(=O)C1(C(=O)NCCc2c(-c3ccc(F)cc3)[nH]c3c(F)cc(F)cc23)CC1` [Compound 339]: the pIC50 was 6.00 to 6.60.

Turning to `O=C1CC(C(=O)NCCc2c(-c3ccc(F)cc3)[nH]c3c(F)cc(F)cc23)CN1` (centres unmarked) [Compound 340], the negative-log IC50 (pIC50) is under 6.00.

On to `CC(C)(CO)C(=O)NCCc1c(-c2ccc(F)cc2)[nH]c2c(F)cc(F)cc12` [Compound 341], for which the pIC50 is 6.00 to 6.60.

As to `O=C(NCCc1c(-c2ccc(F)cc2)[nH]c2c(F)cc(F)cc12)C1(O)COC1` [Compound 342], the pIC50 is 6.00 to 6.60.

In the case of `NC(=O)CCC(=O)NCCc1c(-c2ccc(F)cc2)[nH]c2c(F)cc(F)cc12` [Compound 343], the negative logarithm of the IC50 (pIC50) was under 6.00.

On to `CC(=O)NCC(=O)NCCc1c(-c2ccc(F)cc2)[nH]c2c(F)cc(F)cc12` [Compound 344], for which the negative logarithm of the IC50 (pIC50) was under 6.00.

Regarding `CNC(=O)CC(=O)NCCc1c(-c2ccc(F)cc2)[nH]c2c(F)cc(F)cc12` [Compound 345], the pIC50 is under 6.00.

As to `O=C(NCCc1c(-c2ccc(F)cc2)[nH]c2c(F)cc(F)cc12)C(O)C1CC1` (centres unmarked) [Compound 346], the pIC50 was 6.00 to 6.60.

On to `O=C(NCCc1c(-c2ccc(F)cc2)[nH]c2c(F)cc(F)cc12)C1(CO)CC1` [Compound 347], for which the negative logarithm of the IC50 (pIC50) was over 6.60.

On to `O=C(NCCc1c(-c2ccc(F)cc2)[nH]c2c(F)cc(F)cc12)C1CC(O)C1` (centres unmarked) [Compound 348], for which the negative logarithm of the IC50 (pIC50) is under 6.00.

`NC1(C(=O)NCCc2c(-c3ccc(F)cc3)[nH]c3c(F)cc(F)cc23)CCC1` [Compound 349]: the pIC50 was 6.00 to 6.60.

For the compound `O=C(NCCc1c(-c2ccc(F)cc2)[nH]c2c(F)cc(F)cc12)C1CNC1=O` (centres unmarked) [Compound 350], the pIC50 is under 6.00.

Consider `O=C(NCCc1c(-c2ccc(F)cc2)[nH]c2c(F)cc(F)cc12)c1cc[nH]n1` [Compound 351], for which the negative logarithm of the IC50 (pIC50) is under 6.00.

For the compound `O=C(NCCc1c(-c2ccc(F)cc2)[nH]c2c(F)cc(F)cc12)c1cn[nH]c1` [Compound 352], the pIC50 was under 6.00.

As for `O=C(NCCc1c(-c2ccc(F)cc2)[nH]c2c(F)cc(F)cc12)c1c[nH]cn1` [Compound 353], the pIC50 was 6.00 to 6.60.

As to `O=C(NCCc1c(-c2ccc(F)cc2)[nH]c2c(F)cc(F)cc12)c1ccc[nH]1` [Compound 354], the pIC50 is under 6.00.

`CC(C)(O)C(=O)NCCc1c(-c2ccc(F)cc2)[nH]c2c(F)cc(F)cc12` [Compound 355]: the pIC50 is under 6.00.

With `C[C@H](O)CC(=O)NCCc1c(-c2ccc(F)cc2)[nH]c2c(F)cc(F)cc12` [Compound 356], the negative logarithm of the IC50 (pIC50) is under 6.00.

On to `NC(=O)CC(=O)NCCc1c(-c2ccc(F)cc2)[nH]c2c(F)cc(F)cc12` [Compound 358], for which the negative logarithm of the IC50 (pIC50) is under 6.00.

Consider `CNC(=O)C(=O)NCCc1c(-c2ccc(F)cc2)[nH]c2c(F)cc(F)cc12` [Compound 359], for which the negative-log IC50 (pIC50) is under 6.00.

Consider `O=C(NCCc1c(-c2ccc(F)cc2)[nH]c2c(F)cc(F)cc12)C1(O)CC1` [Compound 360], for which the pIC50 is 6.00 to 6.60.

For the compound `C[C@H](O)C(=O)NCCc1c(-c2ccc(F)cc2)[nH]c2c(F)cc(F)cc12` [Compound 362], the pIC50 was 6.00 to 6.60.

Regarding `C[C@H](N)C(=O)NCCc1c(-c2ccc(F)cc2)[nH]c2c(F)cc(F)cc12` [Compound 363], the pIC50 is under 6.00.

In the case of `NC(=O)C(=O)NCCc1c(-c2ccc(F)cc2)[nH]c2c(F)cc(F)cc12` [Compound 364], the negative logarithm of the IC50 (pIC50) was 6.00 to 6.60.

In the case of `O=C(CO)NCCc1c(-c2ccc(F)cc2)[nH]c2c(F)cc(F)cc12` [Compound 365], the pIC50 is under 6.00.

On to `NCC(=O)NCCc1c(-c2ccc(F)cc2)[nH]c2c(F)cc(F)cc12` [Compound 366], for which the pIC50 was 6.00 to 6.60.

As to `O=C(NCCc1c(-c2ccc(F)cc2)[nH]c2c(F)cc(F)cc12)c1cnc(C(F)(F)F)s1` [Compound 367], the pIC50 is under 6.00.

Turning to `O=C(NCCc1c(-c2ccc(F)cc2)[nH]c2c(F)cc(F)cc12)c1nc(C(F)(F)F)cs1` [Compound 368], the pIC50 was under 6.00.

Take `O=C(NCCc1c(-c2ccc(F)cc2)[nH]c2c(F)cc(F)cc12)c1ccnc(C(F)(F)F)c1` [Compound 369]: the pIC50 was under 6.00.

Regarding `O=C(CCN1CCCC1=O)NCCc1c(-c2ccc(F)cc2)[nH]c2c(F)cc(F)cc12` [Compound 370], the negative-log IC50 (pIC50) was under 6.00.

Regarding `Cn1ccnc1CCC(=O)NCCc1c(-c2ccc(F)cc2)[nH]c2c(F)cc(F)cc12` [Compound 371], the pIC50 was under 6.00.

Consider `Cc1ccnn1CCC(=O)NCCc1c(-c2ccc(F)cc2)[nH]c2c(F)cc(F)cc12` [Compound 372], for which the negative logarithm of the IC50 (pIC50) is under 6.00.

On to `O=C(COc1cccnc1)NCCc1c(-c2ccc(F)cc2)[nH]c2c(F)cc(F)cc12` [Compound 373], for which the pIC50 is under 6.00.

On to `CN(C)C(=O)CCC(=O)NCCc1c(-c2ccc(F)cc2)[nH]c2c(F)cc(F)cc12` [Compound 374], for which the negative-log IC50 (pIC50) was under 6.00.

As for `O=C(CN1CCCC1=O)NCCc1c(-c2ccc(F)cc2)[nH]c2c(F)cc(F)cc12` [Compound 375], the negative-log IC50 (pIC50) was under 6.00.

Consider `O=C(Cc1nccs1)NCCc1c(-c2ccc(F)cc2)[nH]c2c(F)cc(F)cc12` [Compound 376], for which the negative logarithm of the IC50 (pIC50) was under 6.00.

For `O=C(NCCc1c(-c2ccc(F)cc2)[nH]c2c(F)cc(F)cc12)c1cncc(F)c1` [Compound 377], the negative logarithm of the IC50 (pIC50) was under 6.00.

`Cc1ccn(CC(=O)NCCc2c(-c3ccc(F)cc3)[nH]c3c(F)cc(F)cc23)n1` [Compound 378]: the pIC50 is under 6.00.

Regarding `Cc1cnn(CC(=O)NCCc2c(-c3ccc(F)cc3)[nH]c3c(F)cc(F)cc23)c1` [Compound 379], the pIC50 is under 6.00.

Source of the values: US20230014907A1, “INHIBITORS OF APOL1 AND METHODS OF USING SAME” (Vertex Pharmaceuticals Incorporated, priority 2020, published 2023).
